We go through five molecules from BindingDB's records for doi:10.1016/j.bioorg.2016.12.011 (University of Karachi, 2017).

For orientation: IC50 means the concentration needed to halve the response being measured. The low end stands for greater potency in that assay, the high end for weaker potency in that assay.

The test concerns the target T1, Beta-glucuronidase (Bos taurus, UniProt A3KMY8).
T1 sequence (A3KMY8 whole entry): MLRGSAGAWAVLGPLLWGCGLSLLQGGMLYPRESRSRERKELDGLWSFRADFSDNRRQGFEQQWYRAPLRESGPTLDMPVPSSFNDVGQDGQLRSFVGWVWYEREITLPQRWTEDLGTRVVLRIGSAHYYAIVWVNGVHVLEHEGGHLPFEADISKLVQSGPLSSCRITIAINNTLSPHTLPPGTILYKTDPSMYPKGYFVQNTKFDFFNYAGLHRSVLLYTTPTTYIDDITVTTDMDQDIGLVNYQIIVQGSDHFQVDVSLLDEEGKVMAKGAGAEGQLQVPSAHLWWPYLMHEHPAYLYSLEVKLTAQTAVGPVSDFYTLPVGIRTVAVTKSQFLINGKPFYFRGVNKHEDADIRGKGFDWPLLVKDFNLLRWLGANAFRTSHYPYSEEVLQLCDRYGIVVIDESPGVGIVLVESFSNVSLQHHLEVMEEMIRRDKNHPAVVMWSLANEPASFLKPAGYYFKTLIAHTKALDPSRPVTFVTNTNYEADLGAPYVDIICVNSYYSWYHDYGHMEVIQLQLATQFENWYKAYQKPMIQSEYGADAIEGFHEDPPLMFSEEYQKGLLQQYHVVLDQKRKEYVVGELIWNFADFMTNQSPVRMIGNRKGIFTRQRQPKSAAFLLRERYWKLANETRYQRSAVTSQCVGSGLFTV
Nature of the test: β-Glucuronidase Inhibition Assay. As to the method:
Total volume of reaction was 250 μL. […] Reaction mixture comprised of 0.1 M acetate buffer (185 μL), test compound solution in DMSO (5 μL), enzyme solution (10 μL), was incubated for 30 min at 37 °C. […] All assays were run in triplicate.

`Cc1ccc(-c2csc(N/N=C/c3ccc4ccc5cccc6ccc3c4c56)n2)cc1` [(E)-2-(2-(Pyren-1-ylmethylene)hydrazinyl)-4-(p-tolyl)thiazole (4)] registered an IC50 of 40.1 µM.
The result for `NC(=S)N/N=C/c1ccc2ccc3cccc4ccc1c2c34` [(E)-2-(Pyren-1-ylmethylene)hydrazine-1-carbothioamide (2)] reads 5.5 µM; that for `Clc1ccc(-c2csc(C/C=C/c3ccc4ccc5cccc6ccc3c4c56)n2)cc1` [(E)-4-(4-Chlorophenyl)-2-(3-(pyren-1-yl)allyl)thiazole (10)], 11.1 µM.
Then `COc1ccc(-c2csc(N/N=C/c3ccc4ccc5cccc6ccc3c4c56)n2)cc1` [(E)-4-(4-Methoxyphenyl)-2-(2-(pyren-1-ylmethylene)hydrazinyl)thiazole (3)], with 24.4 µM; and `C(=N\Nc1nc(-c2ccc(-c3ccccc3)cc2)cs1)/c1ccc2ccc3cccc4ccc1c2c34` [(E)-4-([1,10-Biphenyl]-4-yl)-2-(2-(pyren-1-ylmethylene)hydrazinyl)thiazole (5)], with 36.1 µM.
